Laboratory results published in patent US8043623B2, “Immunogenic peptides for the treatment of prostate and breast cancer” (The Government of the United States of America as …, priority 2003, dated 2011).
“Also recorded” adds a separate entry of the source.

Tests used:
[1] = system: peptide-pulsed C1R-A2.1 target cells; test: Human CTL 5-hour ^51Cr release assay on peptide-pulsed targets; assay type: cell-based; conditions: for cytolytic activity of human CD8^+ CTL raised with the peptide against targets pulsed with the corresponding peptide / recognition of TARP-27-35 by human CTL raised with the peptide: C1R-A2.1 targets; for cross-reactivity of human CD8^+ CTL raised with the peptide to other peptides (wild-type TARP-29-37, enhanced epitopes): C1R-A2.1 targets pulsed with 10 μM peptides; for peptide concentration at which CTLs specific for TARP-29-37-9V recognize targets pulsed with the named peptide (avidity): label = peptide pulsed on targets, effector = TARP-29-37-9V-specific human CTL
Protocol: (§1) In vitro human CD8^+ T cell priming with DC. Elutriated monocytes and lymphocytes were obtained from HLA-A2.1-positive patients or normal donors. To prepare DC, monocytes were cultured at 10^6 cells/ml in complete medium containing human IL-4 (1000 units/ml) and human GM-CSF (1000 units/ml). On day 2 and 4, half of the media was exchanged. To mature the DC, CD40 ligand trimer (Immunex, Seattle, Wash.) was added at 1 μg/ml on day 4 or 5, and then further cultured for 2 or 3 days. Cells were harvested on day 7, and then pulsed with 10 μM of peptides for 2 hours before γ-irradiation. 1×10^5 peptide-pulsed DC and 2×10^6 autologous CD8^+ T cells were mixed and cultured in 24-well plates. 10 units/ml IL-2 was added on day 2 during restimulation. Cells were restimulated every 7-9 days approximately 4-7 cycles.
(§2) CTL assay. For murine CTL, CD8^+ T cells from the immunized mice were restimulated with peptide-loaded splenocytes for one week as previously described (Oh et al., J Immunol 170:2523, 2003), and then applied to 5 hour ^51Cr release assays. Target cells were labeled with ^51Cr first and washed twice. Cells were then pulsed with peptides for 2 hours and used as target cells without further washing. For human CTL, target cells were also labeled with ^51Cr first, and then loaded with peptides. In the CTL assay against human tumor cells, target cells were incubated in the complete medium containing 1000 units/ml IFN-γ for 72 hours. The mean of triplicate samples was calculated, and the percentage of specific lysis was determined using the following formula: Percentage of specific lysis=100×[(experimental ^51Cr release−control ^51Cr release)/(maximum ^51Cr release−control ^51Cr release)]. The maximum release refers to counts from targets in 2.5% Triton X-100.

HLA-A2.1 molecules = molecular target: T1, HLA-A2.1 molecules (Homo sapiens, UniProt P04439, D140Y/D185E/D98H/E176V/E277Q/G131W/G231S/I119V/I121R/I166T/I218V/L300P/L318F/N151K/N90K/P208A/P217A/Q86G/Q94H/R138H/R169H/T345S); test: T2-binding assay; conditions: T2 cells; for binding capacity to HLA-A2.1 molecules: overnight with β2-microglobulin, anti-HLA-A2 staining
T1 construct: The T2 cell line is deficient in TAP1 and TAP2 transporter proteins and expresses low levels of HLA-A2.1; endogenous in cells; host or cells: T2 cell line (TAP1/TAP2-deficient)
Protocol: T2-binding assay. Peptide binding capacity to HLA-A2.1 molecules was measured by using the T2 cell line according to a protocol previously described (Nijman et al., Eu. J. Immunol. 23:1215, 1993). T2 cells (3×10^5/well) were incubated overnight in 96-well plates with culture medium (1:1 mixture of RPMI 1640/EHAA containing 2.5% FBS, 100 U/ml penicillin, 100 μg/ml streptomycin) with 10 μg/ml β2-microglobulin (Sigma) and different concentrations of peptide. Cells were washed twice with cold PBS containing 2% FBS and incubated for 30 minutes at 4° C. with anti-HLA-A2.1 BB7.2 mAb ( 1/80 dilution from hybridoma supernatant). After washing, cells were stained with FITC-labeled goat anti-mouse Ig (PharMingen, San Diego, Calif.) and the level of HLA-A2.1 expression was measured by flow cytometry. HLA-A2.1 expression was quantified as fluorescence index (FI) according to the formula: FI=(mean fluorescence intensity with peptide-mean fluorescence intensity without peptide)/mean fluorescence intensity without peptide.

CD8^+ T cells = test: In vitro human CD8^+ T cell priming with peptide-pulsed DC; assay type: cell-based; conditions: CD8^+ T cells of an HLA-A2.1-positive prostate cancer patient, peptide-pulsed autologous DC
Protocol: as §1

MCF-7 = test: CTL assay against human tumor cells (MCF-7); assay type: cell-based
Protocol: as §1, §2

A2K^b transgenic mice = test: Immunization of A2K^b transgenic mice; murine CTL assay and intracellular IFN-γ staining; assay type: in vivo; conditions: for cross-reactivity of murine CD8^+ CTL induced with the peptide: recognition of wild-type TARP-29-37 and other peptides on pulsed targets: Jurkat-HLA-A2 targets pulsed with peptides; for cross-reactivity of murine CD8^+ CTL induced with the peptide: recognition of wild-type TARP-29-37 and other peptides on pulsed targets / killing of target cells pulsed with TARP-27-35 by murine CTL induced with the peptide: ^51Cr release; for frequency of CD8^+ T cells specific for the individual peptide, compared to wild-type TARP-29-37: mice immunized s.c. with peptide and cytokine in adjuvant, IFN-γ staining; for number of IFN-γ-producing CD8^+ T cells, of total CD8^+ T cells: mice immunized with peptide-pulsed DC, intracellular staining
Protocol: Immunizations. A2K^b transgenic mice were immunized with syngeneic peptide-loaded dendritic cells (DC), plasmid DNA expressing TARP, or the mixture of peptide and cytokine in incomplete Freund's adjuvant (IFA). For DC immunization, DC were pulsed with 10 μM peptide in serum-free RPMI for 2 hours at 37° C., and then mice were immunized subcutaneously (s.c.) with 1-3×10^5 DC without washing. DC were prepared from bone marrow as previously described (Celluzzi et al. J. Exp. Med. 183:283, 1996). Alternatively, mice were immunized intramuscularly with 100 μg plasmid DNA, pcDNA5/FRT/TARP, generated by inserting the TARP DNA into the pcDNA5/RFT (Invitrogen, Carlsbad, Calif.) vector. Mice were also immunized subcutaneously (s.c.) in the base of the tail with 100 μl of an emulsion containing 1:1 IFA and PBS with antigens and cytokines (50 nmol CTL epitope, 50 nmol HBV core 128-140 helper epitope, 3 μg of IL-12, and 5 μg of granulocyte macrophage colony stimulating factor (GM-CSF). IFA and cytokines were purchased from Sigma and Peptotech (Rocky Hill, N.J.), respectively.
as §2
Antibody and flow cytometry. FITC-labeled anti-mouse CD8 (53-6.7), CD11c, CD80 (B7-1), CD54 (ICAM-1), anti-human CD8 (RPA-T8), CD14 (M5E2), CD80 (B7-1), and CD86 (B7-2) were used for staining of cell surface molecules. For intracellular IFN-γ staining, cells were stained by following the manufacturer's protocol. All Abs and reagents were purchased from PharMingen. For flow cytometric analysis of cell surface, 5×10^5 cells were washed and resuspended in PBS containing 0.2% BSA and 0.1% sodium azide. Cells were incubated on ice with the appropriate antibody for 30 minutes and then washed. Samples were analyzed on a FACScan (BD Biosciences, Mountain View, Calif.). Background staining was assessed by use of an isotype control antibody. For tetramer staining, cells were incubated with FITC-labeled anti-CD8 for 10 minutes, and then stained with tetramers.

[2] = 50:1 E/T ratio, targets pre-incubated with IFN-γ 72 hours

Substance	recognition of TARP-27-35 by human CTL raised with the peptide [1]	cross-reactivity of human CD8^+ CTL raised with the peptide to other peptides (wild-type TARP-29-37, enhanced epitopes) [1]	peptide concentration at which CTLs specific for TARP-29-37-9V recognize targets pulsed with the named peptide (avidity) [1]	binding affinity to HLA-A2.1 molecules compared with another peptide (HLA-A2.1 molecules)	lytic activity against MCF-7 of CD8^+ CTL specific for the peptide (MCF-7; [2])	cross-reactivity of murine CD8^+ CTL induced with the peptide: recognition of wild-type TARP-29-37 and other peptides on pulsed targets (A2K^b transgenic mice)	frequency of CD8^+ T cells specific for the individual peptide, compared to wild-type TARP-29-37 (A2K^b transgenic mice)	binding capacity to HLA-A2.1 molecules (HLA-A2.1 molecules)	further results
FLANFSLML (TARP peptide with a R3A substitution.) [TARP-29-37-3A]	to some extent	poorly recognized the wild-type and TARP-29-37-9V; also recorded: did not recognize other peptides as much as they did the immunogens; also recorded: did not recognize wild-type peptide very well in the human	only slightly lower avidity	greatest increase in the binding affinity; also recorded: not less than that of the positive control peptide, FMP; also recorded: highest binding affinity	less lytic activity to MCF-7; also recorded: much lower lytic activity against tumor cells than CTLs to TARP-29-37-9V	recognized TARP-29-37-3A/MHC complex better than other peptide/MHC Class I complexes; also recorded: weak cross-reactivity to wild-type peptide in the mice	almost two-fold higher frequencies of CD8^+ T cells; also recorded: high CD8^+ T cell responses in transgenic mice	–	cytolytic activity of human CD8^+ CTL raised with the peptide against targets pulsed with the corresponding peptide [1]: higher levels of cytolytic activity against the corresponding peptides; cycles of in vitro restimulation needed to detect peptide-specific CD8^+ T cells (CD8^+ T cells): after only four cycles; lytic activity against MCF-7 of CD8^+ CTL specific for the peptide (MCF-7; 100:1 E/T ratio): comparable range of lytic activity against MCF-7 cells; also recorded: significant range of specific lysis only at a 100:1 E:T ratio; killing of target cells pulsed with TARP-27-35 by murine CTL induced with the peptide (A2K^b transgenic mice): did not kill target cells pulsed with TARP-27-35
FLRNFSLML (listed as Homo sapiens) [TARP-29-37]	to some extent	could recognize and lyse target cells pulsed with the wild-type as well as the two enhanced epitopes; also recorded: killed the wild-type peptide (TARP-29-37, SEQ ID NO: 5)-pulsed target cells efficiently; also recorded: could recognize all four peptide/MHC complexes	only slightly lower avidity	–	–	–	–	showed measurable binding capacity	peptide-specific CD8^+ T cell responses (CTL) (A2K^b transgenic mice; mice immunized with peptide-pulsed DC or plasmid DNA expressing TARP): lower peptide-specific CD8^+ T cell responses; number of IFN-γ-producing CD8^+ T cells, of total CD8^+ T cells (A2K^b transgenic mice): significant number of CD8^+ T cells producing IFN-γ
FLRNFSLMV (TARP peptide with a L9V substitution.) [TARP-29-37-9V]	to some extent	could recognize both wild-type and TARP-29-37-3A comparably; also recorded: killed the wild-type peptide (TARP-29-37, SEQ ID NO: 5)-pulsed target cells efficiently; also recorded: to a similar degree to the immunogen	0.001 µM	lower binding affinity to HLA-A2.1 than TARP-29-37-3A; also recorded: did enhance the binding affinity of wild-type peptide	higher lytic activity against MCF-7; also recorded: could kill human tumor cells	slightly more potent in killing targets pulsed with wild-type TARP-29-37; also recorded: most immunogenic of the peptides in inducing CTLs specific for the wild-type sequence	almost two-fold higher frequencies of CD8^+ T cells; also recorded: higher level of CD8^+ T cell responses than TARP-29-37	–	cycles of in vitro restimulation needed to detect peptide-specific CD8^+ T cells (CD8^+ T cells): at least five cycles; killing of target cells pulsed with TARP-27-35 by murine CTL induced with the peptide (A2K^b transgenic mice): could also kill target cells pulsed with TARP-27-35
FVFLRNFSL (listed as Homo sapiens) [TARP-27-35]	–	poorly recognized other peptide/MHC complexes tested; also recorded: did not recognize other peptides as much as they did the immunogens	–	almost a ten-fold higher binding affinity	higher lytic activity against MCF-7; also recorded: could kill human tumor cells as well	did not recognize TARP-29-37	higher frequency of CD8^+ CTL specific for the peptide	showed measurable binding capacity	cytolytic activity of human CD8^+ CTL raised with the peptide against targets pulsed with the corresponding peptide [1]: higher levels of cytolytic activity against the corresponding peptides; also recorded: lysed TARP-27-35-pulsed target cells; number of IFN-γ-producing CD8^+ T cells, of total CD8^+ T cells (A2K^b transgenic mice): 2.1%
TARP-2-9: amino acids 2-9 of SEQ ID NO: 1 (QMFPPSPL; listed as Homo sapiens)	–	–	–	–	–	–	–	Neither TARP-2-9 nor TARP-22-30 showed any measurable binding affinity	–
TARP-22-30: amino acids 22-30 of SEQ ID NO: 1 (RLEHTFVFL; listed as Homo sapiens)	–	–	–	–	–	–	–	Neither TARP-2-9 nor TARP-22-30 showed any measurable binding affinity	–
TARP-27-35-2L: TARP-27-35 substituted at position 2 with Leu (FLFLRNFSL; listed as Homo sapiens)	–	–	–	did not alter the binding affinity of the wild-type peptide	–	–	–	–	–
TARP-27-35-9V: TARP-27-35 substituted at position 9 with Val (FVFLRNFSV; listed as Homo sapiens)	–	–	–	did not alter the binding affinity of the wild-type peptide	–	–	–	–	–
substitution with Ala at position 3 in TARP-27-35: TARP-27-35 with Phe at position 3 replaced by Ala (FVALRNFSL; listed as Homo sapiens)	–	–	–	–	–	–	–	no binding of the peptide to HLA-A2.1 molecules	–
